This note sets out measurements from patent publication US7462614B2, “Imidazotriazine compounds” (Smithkline Beecham Corporation, priority 2003, dated 2008).

Structures are written as SMILES.

For this assay, the target named is T1, truncated human PLK1 (kinase domain) (Homo sapiens, UniProt P53350).
T1 construct: made in house; host or cells: baculovirus-infected T. ni insect cells
In words: Assay for Inhibition of PLK1 (33P SPA enzyme activity). It counts as biochemical. The conditions noted are these: 1 μM ATP, 2 nM enzyme; read-out: Ave pIC50 PLK Enzyme Inhibition (converted). As to the method: I. Assay for Inhibition of PLK1
A. Preparation of 6× N-Terminal His-Tagged PLK Kinase Domain
All procedures are performed at 4° C. Cells are lysed in 25 mM HEPES, 200 mM NaCl, 25 mM imidazole; pH 8.0. The homogenate is centrifuged at 14K rpm in a SLA-1500 rotor for 40 min and the supernatant filtered through a 1.2 micron filter. The supernatant is loaded onto a Nickel chelating Sepharose (Amersham Pharmacia) column and washed with 25 mM HEPES, 500 mM NaCl, 25 mM imidazole; pH 8.0. […] PLK is concentrated using a 10 kDa molecular weight cutoff membrane and then loaded onto a Superdex 75 gel filtration (Amersham BioSciences) column equilibrated in 25 mM HEPES, 1 mM DTT, 500 mM NaCl; pH 8.0. Fractions containing PLK are determined by SDS-PAGE. PLK is pooled, aliquoted and stored at […]. Samples are quality controlled using mass spectrometry.
B. Enzyme Activity±Inhibitors is Determined As Follows:
Compounds are added to the plate (1 μL in 100% DMSO).
Immediately upon addition of enzyme and thorough mixing, add 20 uL per well into 384-well white plates containing compounds and controls. […] The enzymatic reaction is stopped with 50 μl of bead mix (50 mM EDTA, 2 mg/ml Streptavidin-coated SPA beads in Standard Dulbecco's PBS (without Mg^2+and Ca^2+), and 60 μM ATP).

T1 sequence (P53350 21-346): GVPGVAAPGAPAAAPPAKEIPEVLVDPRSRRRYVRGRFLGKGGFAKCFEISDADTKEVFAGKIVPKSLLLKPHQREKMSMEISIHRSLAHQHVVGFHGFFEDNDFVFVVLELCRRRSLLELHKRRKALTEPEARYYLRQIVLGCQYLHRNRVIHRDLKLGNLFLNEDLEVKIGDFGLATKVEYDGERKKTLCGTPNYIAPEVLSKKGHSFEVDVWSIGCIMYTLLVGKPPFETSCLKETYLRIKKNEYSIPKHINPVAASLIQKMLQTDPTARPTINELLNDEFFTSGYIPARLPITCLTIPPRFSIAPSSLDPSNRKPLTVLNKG

`COc1ccc(CCNC(C)=O)cc1Nc1ncc2c(C)nc(-c3cccc(C(F)(F)F)c3)n2n1` [Example 52, N-{2-[4-Methoxy-3-({5-methyl-7-[3-(trifluoromethyl)phenyl]-imidazo[5,1-f][1,2,4]triazin-2-yl}amino)phenyl]ethyl}acetamide]: the IC50 was under 0.1 µM. `COc1ccc(CCN)cc1Nc1ncc2c(C)nc(-c3cccc(C(F)(F)F)c3)n2n1` [Example 53, N-[5-(2-Aminoethyl)-2-methoxyphenyl]-5-methyl-7-[3-(trifluoromethyl)phenyl]imidazo[5,1-f][1,2,4]triazin-2-amine]: the IC50 is under 0.1 µM. Regarding `COc1ccc(Nc2ncc3c(C)nc(-c4cccc(C(F)(F)F)c4)n3n2)c(OC)c1` [Example 54, N-(2,4-Dimethoxyphenyl)-5-methyl-7-[3-(trifluoromethyl)phenyl]-imidazo[5,1-f][1,2,4]triazin-2-amine], the IC50 is 0.1 to 10 µM. With `COc1ccc(OC)c(Nc2ncc3c(C)nc(-c4cccc(C(F)(F)F)c4)n3n2)c1` [Example 55, N-(2,5-Dimethoxyphenyl)-5-methyl-7-[3-(trifluoromethyl)phenyl]-imidazo[5,1-f][1,2,4]triazin-2-amine], the IC50 was 0.1 to 10 µM. With `CCOC(=O)c1cncc(Nc2ncc3c(C)nc(-c4cccc(C(F)(F)F)c4)n3n2)c1` [Example 56, Ethyl 5-({5-methyl-7-[3-(trifluoromethyl)phenyl]imidazo[5,1-f][1,2,4]triazin-2-yl}amino)nicotinate], the IC50 is 0.1 to 10 µM. With `COc1cc(Nc2ncc3c(C)nc(-c4cccc(C#Cc5cn[nH]c5)c4)n3n2)cc(OC)c1OC` [Example 58, 5-Methyl-7-[3-(1H-pyrazol-4-ylethynyl)phenyl]-N-(3,4,5-trimethoxyphenyl)imidazo[5,1-f][1,2,4]triazin-2-amine], the IC50 was 0.1 to 10 µM. For the compound `COc1cc(Nc2ncc3c(C)nc(-c4cccc(-c5cccc(C(=O)O)c5)c4)n3n2)cc(OC)c1OC` [Example 59, 3′-{5-Methyl-2-[(3,4,5-trimethoxyphenyl)amino]imidazo[5,1-f][1,2,4]triazin-7-yl}-1,1′-biphenyl-3-carboxylic acid], the IC50 is 0.1 to 10 µM. As to `COc1cc(Nc2ncc3c(C)nc(-c4cccc(-c5ccc(CC(N)C(=O)O)cc5)c4)n3n2)cc(OC)c1OC` (stereo not drawn) [Example 60, 2-Amino-3-(3′-{5-methyl-2-[(3,4,5-trimethoxyphenyl)amino]imidazo-[5,1-f][1,2,4]triazin-7-yl}-1,1′-biphenyl-4-yl)propanoic acid], the IC50 was 0.1 to 10 µM.

On to `COc1cc(Nc2ncc3c(C)nc(-c4cccc(-c5ccccc5C(F)(F)F)c4)n3n2)cc(OC)c1OC` [Example 61, 5-Methyl-7-[2′-(trifluoromethyl)-1,1′-biphenyl-3-yl]-N-(3,4,5-trimethoxyphenyl)imidazo[5,1-f][1,2,4]triazin-2-amine], for which the IC50 is 0.1 to 10 µM. Regarding `COc1cc(Nc2ncc3c(C)nc(-c4cccc(/C(=C\C(N)=O)c5ccccc5)c4)n3n2)cc(OC)c1OC` [Example 62, (2Z)-3-(3-{5-Methyl-2-[(3,4,5-trimethoxyphenyl)amino]-imidazo[5,1-f][1,2,4]triazin-7-yl}phenyl)-3-phenylprop-2-enamide], the IC50 is 0.1 to 10 µM. Regarding `CCS(=O)(=O)c1ccc(OC)c(Nc2cccc(-c3nc(C)c4cnc(Nc5cc(OC)c(OC)c(OC)c5)nn34)c2)c1` [Example 63, 7-(3-{[5-(Ethylsulfonyl)-2-methoxyphenyl]amino}phenyl)-5-methyl-N-(3,4,5-trimethoxyphenyl)imidazo[5,1-f][1,2,4]triazin-2-amine], the IC50 was over 10 µM. `COc1cc(Nc2ncc3c(C)nc(-c4cccc(Nc5ccc(Cn6cncn6)cc5)c4)n3n2)cc(OC)c1OC` [Example 64, 5-Methyl-7-(3-{[4-(1H-1,2,4-triazol-1-ylmethyl)phenyl]amino}-phenyl)-N-(3,4,5-trimethoxyphenyl)imidazo[5,1-f][1,2,4]triazin-2-amine]: the IC50 is 0.1 to 10 µM. Turning to `COc1cc(Nc2ncc3c(C)nc(-c4cccc(Nc5ccc(-n6ccnc6)cc5)c4)n3n2)cc(OC)c1OC` [Example 65, 7-(3-{[4-(1H-Imidazol-1-yl)phenyl]amino}phenyl)-5-nv-5-methyl-N-(3,4,5-trimethoxyphenyl)imidazo[5,1-f][1,2,4]triazin-2-amine], the IC50 was over 10 µM. Consider `COc1cc(Nc2ncc3c(C)nc(-c4cccc(Nc5ccc(N6CCOCC6)c(Cl)c5)c4)n3n2)cc(OC)c1OC` [Example 66, 7-{3-[(3-Chloro-4-morpholin-4-ylphenyl)amino]phenyl}-5-methyl-N-(3,4,5-trimethoxyphenyl)imidazo[5,1-f][1,2,4]triazin-2-amine], for which the IC50 was 0.1 to 10 µM. Then `COc1cc(Nc2ncc3c(C)nc(-c4cccc(Nc5cccc(CS(=O)(=O)N(C)C)c5)c4)n3n2)cc(OC)c1OC` [Example 67, N,N-Dimethyl-1-{3-[(3-{5-methyl-2-[(3,4,5-trimethoxyphenyl)amino]imidazo[5,1-f][1,2,4]triazin-7-yl}phenyl)amino]phenyl}methanesulfonamide], with 0.1 to 10 µM; and `COc1cc(Nc2ncc3c(C)nc(-c4cccc(Nc5ccc(CN6CCN(C)CC6)cc5)c4)n3n2)cc(OC)c1OC` [Example 68, 5-Methyl-7-[3-({4-[(4-methylpiperazin-1-yl)methyl]phenyl}-amino)phenyl]-N-/(3,4,5-trimethoxyphenyl)imidazo[5,1-f][1,2,4]triazin-2-amine], with over 10 µM. For the compound `COc1cc(Nc2ncc3c(C)nc(-c4cccc(Nc5cccc(S(=O)(=O)NC6CC6)c5)c4)n3n2)cc(OC)c1OC` [Example 69, N-Cyclopropyl-3-[(3-{5-methyl-2-[(3,4,5-trimethoxyphenyl)amino]imidazo[5,1-f][1,2,4]triazin-7-yl}phenyl)amino]benzenesulfonamide], the IC50 is 0.1 to 10 µM. In the case of `COc1ccc(Nc2ncc3c(C)nc(-c4ccc(Br)s4)n3n2)cc1` [Example 70, 7-(5-Bromo-2-thienyl)-5-methyl-N-[4-(methyloxy)phenyl]imidazo[5.1-f][1,2,4]triazin-2-amine] it was 0.1 to 10 µM; in that of `COc1ccc(Nc2ncc3c(C)nc(-c4sccc4Br)n3n2)cc1` [Example 71, 7-(3-Bromo-2-thienyl)-5-methyl-N-[4-(methyloxy)phenyl]imidazo[5,1-f][1,2,4]triazin-2-amine], 0.1 to 10 µM. For `COc1ccc(Nc2ncc3c(C)nc(C4CCOCC4)n3n2)cc1` [Example 72, 5-Methyl-N-[4-(methyloxy)phenyl]-7-(tetrahydro-2H-pyran-4-yl)imidazo[5,1-f][1,2,4]triazin-2-amine], the IC50 is 0.1 to 10 µM. Regarding `COc1ccc(Nc2ncc3c(C)nc(-c4ccccc4OC)n3n2)cc1` [Example 73, 5-Methyl-7-[2-(methyloxy)phenyl]-N-[4-(methyloxy)phenyl]-imidazo[5,1-f][1,2,4]triazin-2-amine], the IC50 was 0.1 to 10 µM. Turning to `COc1ccc(Nc2ncc3c(C)nc(-c4cccc(OC)c4)n3n2)cc1` [Example 74, 5-Methyl-7-[3-(methyloxy)phenyl]-N-[4-(methyloxy)phenyl]-imidazo[5,1-f][1,2,4]triazin-2-amine], the IC50 is 0.1 to 10 µM. `COc1ccc(Nc2ncc3c(C)nc(-c4ccccc4Cl)n3n2)cc1` [Example 75, 7-(2-Chlorophenyl)-5-methyl-N-[4-(methyloxy)phenyl]imidazo[5,1-f][1,2,4]triazin-2-amine]: the IC50 is 0.1 to 10 µM. `COc1ccc(Nc2ncc3c(C)nc(-c4cn(C)c5ccccc45)n3n2)cc1` [Example 76, 5-Methyl-7-(1-methyl-1H-indol-3-yl)-N-[4-(methyloxy)phenyl]imidazo[5,1-f][1,2,4]triazin-2-amine]: the IC50 is 0.1 to 10 µM. Then `COc1ccc(Nc2ncc3c(C)nc(C(C)c4ccccc4)n3n2)cc1` (stereo not drawn) [Example 77, 5-Methyl-N-[4-(methyloxy)phenyl]-7-(1-phenylethyl)imidazo[5,1-f][1,2,4]triazin-2-amine], with over 10 µM. Then `COc1ccc(Nc2ncc3c(C)nc(-c4cc5ccccc5n4C)n3n2)cc1` [Example 78, 5-Methyl-7-(1-methyl-1H-indol-2-yl)-N-[4-(methyloxy)phenyl]imidazo[5,1-f][1,2,4]triazin-2-amine], with over 10 µM; and `COc1ccc(Nc2ncc3c(C)nc(-c4ccsc4)n3n2)cc1` [Example 79, 5-Methyl-N-[4-(methyloxy)phenyl]-7-(3-thienyl)imidazo[5,1-f][1,2,4]triazin-2-amine], with 0.1 to 10 µM. For the compound `COc1ccc(Nc2ncc3c(C)nc(-c4ccoc4)n3n2)cc1` [Example 80, 7-(3-Furanyl)-5-methyl-N-[4-(methyloxy)phenyl]imidazo-[5,1-f][1,2,4]triazin-2-amine], the IC50 was 0.1 to 10 µM. Then `COc1ccc(Nc2ncc3c(C)nc(-c4ccco4)n3n2)cc1` [Example 81, 7-(2-Furanyl)-5-methyl-N-[4-(methyloxy)phenyl]imidazo-[5,1-f][1,2,4]triazin-2-amine], with 0.1 to 10 µM; and `COc1ccc(Nc2ncc3c(C)nc(-c4ccc(F)cc4)n3n2)cc1` [Example 82, 7-(4-Fluorophenyl)-5-methyl-N-[4-(methyloxy)phenyl]-imidazo[5,1-f][1,2,4]triazin-2-amine], with 0.1 to 10 µM.
